# PubChem BioAssay (NCI)
#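 Briefly, cells in 96-well plates were exposed to five compound concentrations for 48 h, and endpoints were estimated by linear interpolation. Here, GI50 denotes the concentration required for 50% inhibition of growth. TGI: total growth inhibition.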
# How the values were obtained:
# Assay in all cases: NCI tumour cell line growth inhibition, 48 h
# SK-OV-3 ovarian = tested on: SK-OV-3 ovarian
# 786-0 renal = tested on: 786-0 renal
# SNB-75 CNS = tested on: SNB-75 CNS
# U251 CNS = tested on: U251 CNS
# SNB-19 CNS = tested on: SNB-19 CNS
# MALME-3M melanoma = tested on: MALME-3M melanoma
# SN12C renal = tested on: SN12C renal
# SW-620 colon = tested on: SW-620 colon
# NCI-H522 lung = tested on: NCI-H522 lung
# MDA-MB-231 breast = tested on: MDA-MB-231 breast
# HOP-62 NSCLC = tested on: HOP-62 NSCLC
# NCI-H23 lung = tested on: NCI-H23 lung
# SK-MEL-28 melanoma = tested on: SK-MEL-28 melanoma
# K-562 leukemia = tested on: K-562 leukemia
# BT-549 breast = tested on: BT-549 breast
# SF-539 CNS = tested on: SF-539 CNS
# NCI/ADR-RES ovarian = tested on: NCI/ADR-RES ovarian
# OVCAR-3 ovarian = tested on: OVCAR-3 ovarian
# HCT-116 colon = tested on: HCT-116 colon
# IGROV1 ovarian = tested on: IGROV1 ovarian
# MCF7 breast = tested on: MCF7 breast
# HCC-2998 colon = tested on: HCC-2998 colon
# NCI-H460 lung = tested on: NCI-H460 lung
# UO-31 renal = tested on: UO-31 renal
# A498 renal = tested on: A498 renal
# SF-268 CNS = tested on: SF-268 CNS
# OVCAR-8 ovarian = tested on: OVCAR-8 ovarian
# PC-3 prostate = tested on: PC-3 prostate
# SF-295 CNS = tested on: SF-295 CNS
# UACC-257 melanoma = tested on: UACC-257 melanoma
# EKVX NSCLC = tested on: EKVX NSCLC
# UACC-62 melanoma = tested on: UACC-62 melanoma
# DU-145 prostate = tested on: DU-145 prostate
# M14 melanoma = tested on: M14 melanoma
# HL-60(TB) leukemia = tested on: HL-60(TB) leukemia
# CAKI-1 renal = tested on: CAKI-1 renal
# SK-MEL-5 melanoma = tested on: SK-MEL-5 melanoma
# OVCAR-4 ovarian = tested on: OVCAR-4 ovarian
# HCT-15 colon = tested on: HCT-15 colon
# COLO 205 colon = tested on: COLO 205 colon
# MDA-MB-435 = tested on: MDA-MB-435
# HOP-92 NSCLC = tested on: HOP-92 NSCLC
# KM12 colon = tested on: KM12 colon
# ACHN renal = tested on: ACHN renal
# RPMI-8226 leukemia = tested on: RPMI-8226 leukemia
# CCRF-CEM leukemia = tested on: CCRF-CEM leukemia
# MOLT-4 leukemia = tested on: MOLT-4 leukemia
# HT29 colon = tested on: HT29 colon
# SR leukemia = tested on: SR leukemia
# T-47D breast = tested on: T-47D breast
# OVCAR-5 ovarian = tested on: OVCAR-5 ovarian
# HS 578T breast = tested on: HS 578T breast
# LOX IMVI melanoma = tested on: LOX IMVI melanoma
# NCI-H226 lung = tested on: NCI-H226 lung
# SK-MEL-2 melanoma = tested on: SK-MEL-2 melanoma
# RXF 393 renal = tested on: RXF 393 renal
# A549 NSCLC = tested on: A549 NSCLC
# TK-10 renal = tested on: TK-10 renal
compound,measurement,setting,value
CN(C(=O)c1ccc(F)cc1C(F)(F)F)C1CCN(c2nnc(-c3ccnn3C)c3ccccc23)CC1,GI50,SK-OV-3 ovarian,> 77.9 µM
same,TGI,SK-OV-3 ovarian,> 100 µM
same,GI50,786-0 renal,> 100 µM
same,TGI,786-0 renal,> 100 µM
same,GI50,SNB-75 CNS,14.5 µM
same,TGI,SNB-75 CNS,> 100 µM
same,GI50,U251 CNS,59.3 µM
same,TGI,U251 CNS,> 100 µM
same,GI50,SNB-19 CNS,51.7 µM
same,TGI,SNB-19 CNS,> 100 µM
same,GI50,MALME-3M melanoma,23.6 µM
same,TGI,MALME-3M melanoma,> 100 µM
same,GI50,SN12C renal,51 µM
same,TGI,SN12C renal,> 100 µM
same,GI50,SW-620 colon,> 100 µM
same,TGI,SW-620 colon,> 100 µM
same,GI50,NCI-H522 lung,16.2 µM
same,TGI,NCI-H522 lung,> 100 µM
same,GI50,MDA-MB-231 breast,37.8 µM
same,TGI,MDA-MB-231 breast,> 100 µM
same,GI50,HOP-62 NSCLC,65.1 µM
same,TGI,HOP-62 NSCLC,> 100 µM
same,GI50,NCI-H23 lung,29.3 µM
same,TGI,NCI-H23 lung,> 100 µM
same,GI50,SK-MEL-28 melanoma,> 65.6 µM
same,TGI,SK-MEL-28 melanoma,> 100 µM
same,GI50,K-562 leukemia,27.3 µM
same,TGI,K-562 leukemia,> 100 µM
same,GI50,BT-549 breast,33.3 µM
same,TGI,BT-549 breast,> 100 µM
same,GI50,SF-539 CNS,> 100 µM
same,TGI,SF-539 CNS,> 100 µM
same,GI50,NCI/ADR-RES ovarian,30.9 µM
same,TGI,NCI/ADR-RES ovarian,> 100 µM
same,GI50,OVCAR-3 ovarian,38.1 µM
same,TGI,OVCAR-3 ovarian,> 100 µM
same,GI50,HCT-116 colon,40.8 µM
same,TGI,HCT-116 colon,> 100 µM
same,GI50,IGROV1 ovarian,57.3 µM
same,TGI,IGROV1 ovarian,> 100 µM
same,GI50,MCF7 breast,24.2 µM
same,TGI,MCF7 breast,> 100 µM
same,GI50,HCC-2998 colon,> 93.3 µM
same,TGI,HCC-2998 colon,> 100 µM
same,GI50,NCI-H460 lung,53.9 µM
same,TGI,NCI-H460 lung,> 100 µM
same,GI50,UO-31 renal,22 µM
same,TGI,UO-31 renal,> 100 µM
same,GI50,A498 renal,54.8 µM
same,TGI,A498 renal,> 100 µM
same,GI50,SF-268 CNS,> 74.5 µM
same,TGI,SF-268 CNS,> 100 µM
same,GI50,OVCAR-8 ovarian,30.5 µM
same,TGI,OVCAR-8 ovarian,> 100 µM
same,GI50,PC-3 prostate,33.3 µM
same,TGI,PC-3 prostate,> 100 µM
same,GI50,SF-295 CNS,31.5 µM
same,TGI,SF-295 CNS,> 100 µM
same,GI50,UACC-257 melanoma,23.2 µM
same,TGI,UACC-257 melanoma,> 100 µM
same,GI50,EKVX NSCLC,19.4 µM
same,TGI,EKVX NSCLC,> 100 µM
same,GI50,UACC-62 melanoma,28.9 µM
same,TGI,UACC-62 melanoma,> 100 µM
same,GI50,DU-145 prostate,75.4 µM
same,TGI,DU-145 prostate,> 100 µM
same,GI50,M14 melanoma,46.7 µM
same,TGI,M14 melanoma,> 100 µM
same,GI50,HL-60(TB) leukemia,27.3 µM
same,TGI,HL-60(TB) leukemia,> 84.1 µM
same,GI50,CAKI-1 renal,31.9 µM
same,TGI,CAKI-1 renal,> 100 µM
same,GI50,SK-MEL-5 melanoma,11.6 µM
same,TGI,SK-MEL-5 melanoma,30 µM
same,GI50,OVCAR-4 ovarian,20.9 µM
same,TGI,OVCAR-4 ovarian,> 100 µM
same,GI50,HCT-15 colon,39.9 µM
same,TGI,HCT-15 colon,> 100 µM
same,GI50,COLO 205 colon,32.9 µM
same,TGI,COLO 205 colon,> 100 µM
same,GI50,MDA-MB-435,26.6 µM
same,TGI,MDA-MB-435,> 100 µM
same,GI50,HOP-92 NSCLC,16.5 µM
same,TGI,HOP-92 NSCLC,> 92.9 µM
same,GI50,KM12 colon,52.8 µM
same,TGI,KM12 colon,> 100 µM
same,GI50,ACHN renal,51.7 µM
same,TGI,ACHN renal,> 100 µM
same,GI50,RPMI-8226 leukemia,19.1 µM
same,TGI,RPMI-8226 leukemia,> 100 µM
same,GI50,CCRF-CEM leukemia,31.6 µM
same,TGI,CCRF-CEM leukemia,> 100 µM
same,GI50,MOLT-4 leukemia,23.2 µM
same,TGI,MOLT-4 leukemia,68.8 µM
same,GI50,HT29 colon,55.5 µM
same,TGI,HT29 colon,> 100 µM
same,GI50,SR leukemia,50.9 µM
same,TGI,SR leukemia,> 100 µM
same,GI50,T-47D breast,10.6 µM
same,TGI,T-47D breast,99.4 µM
same,GI50,OVCAR-5 ovarian,> 100 µM
same,TGI,OVCAR-5 ovarian,> 100 µM
same,GI50,HS 578T breast,50.8 µM
same,TGI,HS 578T breast,> 100 µM
same,GI50,LOX IMVI melanoma,61.5 µM
same,TGI,LOX IMVI melanoma,> 100 µM
same,GI50,NCI-H226 lung,28.2 µM
same,TGI,NCI-H226 lung,> 100 µM
same,GI50,SK-MEL-2 melanoma,29.9 µM
same,TGI,SK-MEL-2 melanoma,> 100 µM
same,GI50,RXF 393 renal,17.4 µM
same,TGI,RXF 393 renal,> 84.3 µM
same,GI50,A549 NSCLC,41 µM
same,TGI,A549 NSCLC,> 100 µM
same,GI50,TK-10 renal,65.6 µM
same,TGI,TK-10 renal,> 100 µM
